Patent publication US7259170B2, “Macrolides containing pharmaceutical compositions” (Novartis AG, priority 2001, dated 2007)
Counter-ions that a name gives are not always drawn. Marks after values point to notes of the source that are not given here.

System: Experimental autoimmune uveitits (EAU)
Assay: Experimental autoimmune uveitits (EAU) test in rats
Format: in vivo, LEWIS rats
Details: for EAU 1st: Day of first signs of EAU (mean±SD) / EAU 10: Incidence of EAU on day 10 (affected animals/animals per group) / EAU POS: Number of EAU positive rats (affected animals/animals per group until end of the study) / SCORE MAX DAY: day of maximum score / SCORE MAX SCORE: Maximum score (mean of both eye lesions±SD): oral once daily; for course and intensity of the disease compared with placebo controls: oral, 0.1 mg/kg compound of formula IIa or 15 mg/kg/day compound of formula I alone, combination at the same dosage levels
[1] = Example 1, 5 rats per group, 14 days, Dosis mg/kg/day: Cpd IIa 0.1, Cpd I 15, combination 1.5 [sic] + 15
[2] = Example 1, 14 days, Dosis mg/kg/day: Cpd IIa 0.1, Cpd I 15, combination 1.5 [sic] + 15
[3] = Example 1, scores 0 to 4 for 1 eye, 14 days, Dosis mg/kg/day: Cpd IIa 0.1, Cpd I 15, combination 1.5 [sic] + 15
[4] = Example 2, 6 rats per group, 14 days (14×), mg/kg/day: Cpd IIa 0.1, Cpd I 15, combination 15 + 0.1

Row | SMILES | EAU 1st: Day of first signs of EAU (mean±SD) [1] | EAU 10: Incidence of EAU on day 10 (affected animals/animals per group) [1] | EAU POS: Number of EAU positive rats (affected animals/animals per group until end of the study) [1] | SCORE MAX DAY: day of maximum score [2] [days] | course and intensity of the disease compared with placebo controls (Example 1) | SCORE MAX SCORE: Maximum score (mean of both eye lesions±SD) [3] | EAU 1st: Day of first signs of EAU (mean±SD) [4] | EAU 10: Incidence of EAU on day 10 (affected animals/animals per group) [4] | EAU POS: Number of EAU positive rats (affected animals/animals per group until end of the study) [4] | SCORE MAX DAY: day of maximum score [4] [days] | SCORE MAX SCORE: Maximum score (mean of both eye lesions±SD) [4]
1 | CC[C@@H]1/C=C(\C)C[C@H](C)C[C@H](OC)[C@H]2O[C@@](O)(C(=O)C(=O)N3CCCC[C@H]3C(=O)O[C@H](/C(C)=C/[C@@H]3CC[C@H](Cl)[C@H](OC)C3)[C@H](C)[C@@H](O)CC1=O)[C@H](C)C[C@@H]2OC [Cpd I, 33-epi-33-chloro-FR 520] | 11.8 (1.3) day | 1/5 | 5/5 | 14 | not distinctively different from placebo controls | 6.8 (1.3) | 11.5 (0.8) day | 2/6 | 6/6 | 14 | 6.0 (2.5)
2 | CCCCCCCCc1ccc(CCC(N)(CO)CO)cc1 [Cpd IIa, 2-amino-2[2-(4-octylphenyl)ethyl]propane-1,3-diol hydrochloride] | 10.5 (0.6) day | 2/5 | 4/4*^) | 13 | not distinctively different from placebo controls | 8.0 (0.0) | 11.2 (1.0) day | 0/6 | 6/6 | 14 | 8.0 (0.0)
